Experimental data taken from patent US8846730B2, “Compounds as cannabinoid receptor ligands” (priority 2008, dated 2014).
Read-outs that look alike come from different tables or passages of the source.

What was measured:
human CB2 receptors = human CB2 receptors (Homo sapiens (Human), UniProt P34972); assay: human CB2 radioligand binding assay ([3H]CP 55,940 competition); conditions: HEK293 membranes, 0.5 nM [3H]CP 55,940; read-out: human CB2 (Ki)
Method: (§1) The CB1 and CB2 radioligand binding assays described herein are utilized to ascertain the affinity of compounds of the present application for binding to CB2 relative to CB1 receptors.
HEK293 cells stably expressing human CB2 receptors were grown until a confluent monolayer was formed. Briefly, the cells were harvested and homogenized in TE buffer (50 mM Tris-HCl, 1 mM MgCl2, and 1 mM EDTA) using a polytron for 2×10 second bursts in the presence of protease inhibitors, followed by centrifugation at 45,000×g for 20 minutes. The final membrane pellet was re-homogenized in storage buffer (50 mM Tris-HCl, 1 mM MgCl2, and 1 mM EDTA and 10% sucrose) and frozen at −78° C. until used. Saturation binding reactions were initiated by the addition of membrane preparation (protein concentration of 5 μg/well for human CB2) into wells of a deep well plate containing [^3H]CP 55,940 (120 Ci/mmol, a nonselective CB agonist commercially available from Tocris) in assay buffer (50 mM Tris, 2.5 mM EDTA, 5 mM MgCl2, and 0.5 mg/mL fatty acid free BSA, pH 7.4). After 90 min incubation at 30° C., binding reaction was terminated by the addition of 300 μL/well of cold assay buffer followed by rapid vacuum filtration through a UniFilter-96 GF/C filter plates (pre-soaked in 1 mg/mL BSA for 2 hours). The bound activity was counted in a TopCount using Microscint-20. Saturation experiments were conducted with twelve concentrations of [^3H]CP 55,940 ranging from 0.01 to 8 nM. Competition experiments were conducted with 0.5 nM [^3H]CP 55,940 and five concentrations (0.01 nM to 10 μM) of displacing ligands. The addition of 10 μM unlabeled CP 55,940 (Tocris, Ellisville, Mo.) was used to assess nonspecific binding.

rat CB2 receptors = rat CB2 receptors (Rattus norvegicus (Rat), UniProt Q9QZN9); assay: rat CB2 radioligand binding assay ([3H]CP 55,940 competition); conditions: HEK293 membranes, 0.5 nM [3H]CP 55,940
Method: as §1
HEK293 cells stably expressing rat CB2 receptors were grown until a confluent monolayer was formed. Briefly, the cells were harvested and homogenized in TE buffer (50 mM Tris-HCl, 1 mM MgCl2, and 1 mM EDTA) using a polytron for 2×10 second bursts in the presence of protease inhibitors, followed by centrifugation at 45,000×g for 20 minutes. The final membrane pellet was re-homogenized in storage buffer (50 mM Tris-HCl, 1 mM MgCl2, and 1 mM EDTA and 10% sucrose) and frozen at −78° C. until used. Saturation binding reactions were initiated by the addition of membrane preparation (protein concentration of 20 μg/well for rat CB2) into wells of a deep well plate containing [^3H]CP 55,940 (120 Ci/mmol, a nonselective CB agonist commercially available from Tocris) in assay buffer (50 mM Tris, 2.5 mM EDTA, 5 mM MgCl2, and 0.5 mg/mL fatty acid free BSA, pH 7.4). After 45 min incubation at 30° C., binding reaction was terminated by the addition of 300 μl/well of cold assay buffer followed by rapid vacuum filtration through a UniFilter-96 GF/C filter plates (pre-soaked in 1 mg/mL BSA for 2 hours). The bound activity was counted in a TopCount using Microscint-20. Saturation experiments were conducted with twelve concentrations of [^3H]CP 55,940 ranging from 0.01 to 8 nM. Competition experiments were conducted with 0.5 nM [^3H]CP 55,940 and five concentrations of displacing ligands selected from the range of 0.01 nM to 10 μM. The addition of 10 μM unlabeled CP 55,940 (Tocris, Ellisville, Mo.) was used to assess nonspecific binding.

[1] = target: rat CB2 receptors (HEK cells) (Rattus norvegicus (Rat), UniProt Q9QZN9); assay: rat CB2 cyclase functional assay (HitHunter cAMP); assay type: cell-based; conditions: HEK cells, forskolin 18 μM; read-out: rat CB2 cyclase (EC50)
Method: (§2) The cyclase functional assays were performed using the HitHunter™ cAMP assay kit from DiscoveRx (Fremont, Calif.) according to vendor's protocol. Briefly, HEK cells expressing CB2 or CB1 receptors (rat or human) were detached using cell dissociation buffer (Invitrogen, Carlsbad, Calif.), dispersed and placed in suspension at 10,000 cells per well in 96 well plates prior to the assay. Cell suspensions were incubated at 37° C. for 20 min with variable concentrations of test ligands and or 10 μM CP 55,940-positive control in the presence of a fixed concentration of forskolin (18 μM for rat CB2 and 37 μM for rat CB1) in Dulbescco's phosphate-buffered saline (Invitrogen, Carlsbad, Calif.) supplemented with bovine serum albumin (0.01% final concentration). The reactions were terminated by the addition of lysis buffer and the luminescence was detected following the procedure according to the manufacturer's instructions. EC50 values were calculated using sigmoidal dose-response curve fitting from Prism (GraphPad).

[2] = target: rat CB1 receptors (HEK cells) (Rattus norvegicus (Rat), UniProt P20272); assay: rat CB1 cyclase functional assay (HitHunter cAMP); assay type: cell-based
Chain of rat CB1 receptors (HEK cells) (P20272 whole entry): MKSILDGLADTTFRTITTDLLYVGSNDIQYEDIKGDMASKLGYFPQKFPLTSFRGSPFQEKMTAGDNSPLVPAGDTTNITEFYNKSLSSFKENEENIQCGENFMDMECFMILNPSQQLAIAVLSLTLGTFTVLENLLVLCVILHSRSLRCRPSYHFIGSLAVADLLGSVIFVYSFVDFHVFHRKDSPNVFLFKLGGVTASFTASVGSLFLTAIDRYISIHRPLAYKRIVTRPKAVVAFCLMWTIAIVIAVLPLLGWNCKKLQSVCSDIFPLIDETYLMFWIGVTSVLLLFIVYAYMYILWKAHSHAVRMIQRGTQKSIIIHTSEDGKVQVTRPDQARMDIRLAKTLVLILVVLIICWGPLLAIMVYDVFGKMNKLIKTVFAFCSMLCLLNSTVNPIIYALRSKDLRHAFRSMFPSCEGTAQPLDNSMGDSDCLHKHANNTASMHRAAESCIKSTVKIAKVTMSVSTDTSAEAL
Method: as §2

[3] = HEK cells, forskolin 37 μM, read-out: rCB1 cyclase (EC50)

Chain of human CB2 receptors (P34972 whole entry): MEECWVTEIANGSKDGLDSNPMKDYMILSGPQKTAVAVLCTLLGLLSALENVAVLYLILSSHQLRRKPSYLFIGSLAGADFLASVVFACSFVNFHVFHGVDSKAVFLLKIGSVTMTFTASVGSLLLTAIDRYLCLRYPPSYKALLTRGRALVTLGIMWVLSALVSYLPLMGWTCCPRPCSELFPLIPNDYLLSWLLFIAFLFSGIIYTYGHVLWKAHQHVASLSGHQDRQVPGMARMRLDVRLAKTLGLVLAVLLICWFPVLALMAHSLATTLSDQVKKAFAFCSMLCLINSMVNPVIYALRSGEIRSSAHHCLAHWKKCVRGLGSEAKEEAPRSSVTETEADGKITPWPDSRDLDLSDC

Structure (SMILES)	Ki (human CB2 receptors)	Ki (rat CB2 receptors)	EC50 [1]	EC50 [2]	EC50 [2, 3]
CC(C)(C)c1cn(C[C@H]2CCCO2)/c(=N/C(=O)c2cc(C(F)(F)F)ccc2OC[C@H]2CCN2)s1 [Example 1, 2-[(2R)-azetidin-2-ylmethoxy]-N-[(2Z)-5-tert-butyl-3-[(2R)-tetrahydrofuran-2-ylmethyl]-1,3-thiazol-2(3H)-ylidene]-5-(trifluoromethyl)benzamide]	115 nM	15 nM	2.26 nM	9330 nM	–
CC(C)(C)c1cn(C[C@H]2CCCO2)/c(=N/C(=O)c2cc(C(F)(F)F)ccc2OC[C@@H]2CCN2)s1 [Example 2, 2-[(2S)-azetidin-2-ylmethoxy]-N-[(2Z)-5-tert-butyl-3-[(2R)-tetrahydrofuran-2-ylmethyl]-1,3-thiazol-2(3H)-ylidene]-5-(trifluoromethyl)benzamide]	15 nM	3 nM	0.64 nM	3240 nM	–
CN1CC[C@H]1COc1ccc(C(F)(F)F)cc1C(=O)/N=c1\sc(C(C)(C)C)cn1C[C@H]1CCCO1 [Example 3, N-[(2Z)-5-tert-butyl-3-[(2R)-tetrahydrofuran-2-ylmethyl]-1,3-thiazol-2(3H)-ylidene]-2-{[(2S)-1-methylazetidin-2-yl]methoxy}-5-(trifluoromethyl)benzamide]	7.4 nM	4.5 nM	0.09 nM	1020 nM	–
CC(C)(C)c1cn(C[C@H]2CCCO2)/c(=N/C(=O)c2cc(C(F)(F)F)ccc2OC[C@@H]2CCCCN2)s1 [Example 4]	0.7 nM	0.6 nM	0.4 nM	–	395 nM
CN1CCCC[C@H]1COc1ccc(C(F)(F)F)cc1C(=O)/N=c1\sc(C(C)(C)C)cn1C[C@H]1CCCO1 [Example 5]	0.7 nM	1.4 nM	0.15 nM	–	612 nM
CC(C)(C)c1cn(C[C@H]2CCCO2)/c(=N/C(=O)c2cc(C(F)(F)F)ccc2OC[C@H]2CCCCN2)s1 [Example 6, N-[(2Z)-5-tert-butyl-3-[(2R)-tetrahydrofuran-2-ylmethyl]-1,3-thiazol-2(3H)-ylidene]-2-[(2R)-piperidin-2-ylmethoxy]-5-(trifluoromethyl)benzamide]	30 nM	14 nM	0.4 nM	4500 nM	–
CN1CCCC[C@@H]1COc1ccc(C(F)(F)F)cc1C(=O)/N=c1\sc(C(C)(C)C)cn1C[C@H]1CCCO1 [Example 7, N-[(2Z)-5-tert-butyl-3-[(2R)-tetrahydrofuran-2-ylmethyl]-1,3-thiazol-2(3H)-ylidene]-2-{[(2R)-1-methylpiperidin-2-yl]methoxy}-5-(trifluoromethyl)benzamide]	33 nM	19 nM	0.38 nM	4700 nM	–
CN1CC[C@@H]1COc1ccc(C(F)(F)F)cc1C(=O)/N=c1\sc(C(C)(C)C)cn1C[C@H]1CCCO1 [Example 8, N-[(2Z)-5-tert-butyl-3-[(2R)-tetrahydrofuran-2-ylmethyl]-1,3-thiazol-2(3H)-ylidene]-2-{[(2R)-1-methylazetidin-2-yl]methoxy}-5-(trifluoromethyl)benzamide]	47 nM	17 nM	0.35 nM	3680 nM	–
CN1CC(COc2ccc(C(F)(F)F)cc2C(=O)/N=c2\sc(C(C)(C)C)cn2C[C@H]2CCCO2)C1 [Example 12, N-[(2Z)-5-tert-butyl-3-[(2R)-tetrahydrofuran-2-ylmethyl]-1,3-thiazol-2(3H)-ylidene]-2-[(1-methylazetidin-3-yl)methoxy]-5-(trifluoromethyl)benzamide]	208 nM	28 nM	2.07 nM	10800 nM	–
CN1CCC(COc2ccc(C(F)(F)F)cc2C(=O)/N=c2\sc(C(C)(C)C)cn2C[C@H]2CCCO2)CC1 [Example 15, N-[(2Z)-5-tert-butyl-3-[(2R)-tetrahydrofuran-2-ylmethyl]-1,3-thiazol-2(3H)-ylidene]-2-[(1-methylpiperidin-4-yl)methoxy]-5-(trifluoromethyl)benzamide]	1000 nM	83 nM	6.26 nM	13000 nM	–
Cn1ccnc1COc1ccc(C(F)(F)F)cc1C(=O)/N=c1\sc(C(C)(C)C)cn1C[C@H]1CCCO1 [Example 17, N-[(2Z)-5-tert-butyl-3-[(2R)-tetrahydrofuran-2-ylmethyl]-1,3-thiazol-2(3H)-ylidene]-2-[(1-methyl-1H-imidazol-2-yl)methoxy]-5-(trifluoromethyl)benzamide]	53 nM	15 nM	2.75 nM	> 27000 nM	–
CC(C)(C)c1cn(C[C@H]2CCCO2)/c(=N/C(=O)c2cc(C(F)(F)F)ccc2OCc2ccccn2)s1 [Example 18, N-[(2Z)-5-tert-butyl-3-[(2R)-tetrahydrofuran-2-ylmethyl]-1,3-thiazol-2(3H)-ylidene]-2-(pyridin-2-ylmethoxy)-5-(trifluoromethyl)benzamide]	20 nM	6 nM	1.02 nM	> 27000 nM	–
CC(C)(C)/C(COc1ccc(C(F)(F)F)cc1C(=O)/N=c1\sc(C(C)(C)C)cn1C[C@H]1CCCO1)=N\O [Example 71, N-[(2Z)-5-tert-butyl-3-[(2R)-tetrahydrofuran-2-ylmethyl]-1,3-thiazol-2(3H)-ylidene]-2-{[(2E)-2-(hydroxyimino)-3,3-dimethylbutyl]oxy}-5-(trifluoromethyl)benzamide]	5.4 nM	4.1 nM	–	> 27000 nM	–
CC(C)(C)C(=O)COc1ccc(C(F)(F)F)cc1C(=O)/N=c1\sc(C(C)(C)C)cn1C[C@H]1CCCO1 [Example 72, N-[(2Z)-5-tert-butyl-3-[(2R)-tetrahydrofuran-2-ylmethyl]-1,3-thiazol-2(3H)-ylidene]-2-(3,3-dimethyl-2-oxobutoxy)-5-(trifluoromethyl)benzamide]	0.9 nM	0.3 nM	–	> 27000 nM	–
CC(COc1ccc(C(F)(F)F)cc1C(=O)/N=c1\sc(C(C)(C)C)cn1C[C@H]1CCCO1)=NO [Example 73, N-[(2Z)-5-tert-butyl-3-[(2R)-tetrahydrofuran-2-ylmethyl]-1,3-thiazol-2(3H)-ylidene]-2-{[2-(hydroxyimino)propyl]oxy}-5-(trifluoromethyl)benzamide]	1.8 nM	0.5 nM	–	–	2320 nM
CC(=NOc1ccc(C(F)(F)F)cc1C(=O)/N=c1\sc(C(C)(C)C)cn1C[C@H]1CCCO1)C(F)(F)F [Example 80, N-[(2Z)-5-tert-butyl-3-[(2R)-tetrahydrofuran-2-ylmethyl]-1,3-thiazol-2(3H)-ylidene]-5-(trifluoromethyl)-2-({[2,2,2-trifluoro-1-methylethylidene]amino}oxy)benzamide]	4.4 nM	4.8 nM	–	> 27000 nM	–
